Results on eleven compounds are retold here after patent US20230103444A1 (The Regents of the University of Colorado, a Body Corporate, priority 2020, published 2023).

Each structure is given as a SMILES string. Like-named read-outs stand apart in the source and are kept apart here.

The IC50 is the point on the concentration scale where inhibition reaches its midpoint.

One series deals with SW620 tumor organoids. The series is described as follows: Tumor organoid cytotoxicity (CellTiter-Glo 3D). On the technique in general: ATP-based viability assays read luminescence as a measure of living cells.
A further series deals with HCT116 tumor organoids. Briefly: Tumor organoid cytotoxicity (CellTiter-Glo 3D). It is filed as cell-based, human. To be noted: Homo sapiens. As to the method: Cell based cytotoxicity dose response and combination studies. […] Plates were then incubated for 3 days before treatment.
Cell Line Tumor Organoid Culture.
Tumor Organoid Cytotoxicity.

The mark [1] stands for this setting: Homo sapiens, SW-620, 72 h, read-out: 3 D Cytotoxicity 72 hr IC50 (μM) SW620.
Where [2] appears, read: Homo sapiens, SW-620, read-out: Tumor Organoid Cytotoxicity IC50 (μM) SW620.
[3] abbreviates: HCT-116, 72 h, Table 6, read-out: 3 D Cytotoxicity 72 hr IC50 (μM) HCT116.
[4] abbreviates: HCT-116, single agent, Table 4A, read-out: Tumor Organoid Cytotoxicity IC50 (μM) HCT116.

In the case of `Cc1cc(Nc2ccc(NC(=O)Cc3c[nH]c4ccc(O)cc34)cc2)nc(N2CCCC2)n1` [Compound 6.25, 2-(5-hydroxy-1H-indol-3-yl)-N-(4-((6-methyl-2-(pyrrolidin-1-yl)pyrimidin-4-yl)amino)phenyl) acetamide], the IC50 in the series with SW620 tumor organoids (setting [1]) came out at 17.6 µM; in the series on SW620 tumor organoids (setting [2]), 19.7 µM.

Regarding `Cc1cc(Nc2ccc(NC(=O)c3cn(C)c4ccccc34)cc2)nc(N2CCCC2)n1` [Compound 6.19, 1-methyl-N-(4-((6-methyl-2-(pyrrolidin-1-yl)pyrimidin-4-yl)amino)phenyl)-1H-indole-3-carboxamide], the concentration for half-maximal inhibition (IC50) with HCT116 tumor organoids (setting [3]) was over 40 µM; in the series with HCT116 tumor organoids (setting [4]) it was over 30 µM; in the series with SW620 tumor organoids (setting [1]), 7.7 µM; in the series with SW620 tumor organoids (setting [2]), 7.7 µM.

Turning to `Cc1cc(Nc2ccc(NC(=O)Cc3c[nH]c4ncccc34)cc2)nc(N2CCCC2)n1` [Compound 6.20, N-(4-((6-methyl-2-(pyrrolidin-1-yl)pyrimidin-4-yl)amino)phenyl)-2-(1H-pyrrolo[2,3-b]pyridin-3-yl)acetamide], the figures for the IC50 in the series on SW620 tumor organoids (setting [1]) and in the series on SW620 tumor organoids (setting [2]) were 2.2 µM and 2.1 µM, respectively.

Consider `Cc1cc(Nc2ccc(NC(=O)Cc3c[nH]c4ccc(Br)cc34)cc2)nc(N2CCCC2)n1` [Compound 6.23, 2-(5-bromo-1H-indol-3-yl)-N-(4-((6-methyl-2-(pyrrolidin-1-yl)pyrimidin-4-yl)amino)phenyl) acetamide], for which the IC50 with SW620 tumor organoids (setting [2]) worked out at 5.7 µM.

Regarding `CCc1ccc2[nH]cc(CC(=O)Nc3ccc(Nc4cc(C)nc(N5CCCC5)n4)cc3)c2c1` [Compound 6.27, 2-(5-ethyl-1H-indol-3-yl)-N-(4-((6-methyl-2-(pyrrolidin-1-yl)pyrimidin-4-yl)amino)phenyl) acetamide], the IC50 was 3 µM with SW620 tumor organoids (setting [1]) and 2.1 µM in the series with SW620 tumor organoids (setting [2]).

Turning to `Cc1cc(Nc2ccc(NC(=O)CC3C(=O)Nc4ccccc43)cc2)nc(N2CCCC2)n1` (stereo not shown) [Compound 6.30, N-(4-((6-methyl-2-(pyrrolidin-1-yl)pyrimidin-4-yl)amino)phenyl)-2-(2-oxoindolin-3-yl) acetamide], the values for the IC50 in the series on SW620 tumor organoids (setting [1]) and in the series with SW620 tumor organoids (setting [2]) were 6.1 µM and 6 µM, respectively.

With `Cc1cc(Nc2ccc(NC(=O)CCc3c[nH]c4ccccc34)cc2)nc(N2CCCC2)n1` [Compound 6.6, 3-(1H-indol-3-yl)-N-(4-((6-methyl-2-(pyrrolidin-1-yl)pyrimidin-4-yl)amino)phenyl) propanamide], the IC50 is over 40 µM with HCT116 tumor organoids (setting [3]), over 30 µM in the series on HCT116 tumor organoids (setting [4]), over 40 µM with SW620 tumor organoids (setting [1]) and over 40 µM in the series on SW620 tumor organoids (setting [2]).

As to `Cc1cc(Nc2ccc(NC(=O)Cn3cc(CC4CC4)c4ccccc43)cc2)nc(N2CCCC2)n1` [Compound 6.26, 2-(3-(cyclopropylmethyl)-1H-indol-1-yl)-N-(4-((6-methyl-2-(pyrrolidin-1-yl)pyrimidin-4-yl)amino)phenyl)acetamide], the IC50 with SW620 tumor organoids (setting [1]) amounted to 4.7 µM; with SW620 tumor organoids (setting [2]), 5.5 µM.

With `Cc1cc(Nc2ccc(NC(=O)Cn3ccc4ccccc43)cc2)nc(N2CCCC2)n1` [Compound 6.24, 2-(1H-indol-1-yl)-N-(4-((6-methyl-2-(pyrrolidin-1-yl)pyrimidin-4-yl)amino)phenyl)acetamide], the IC50 in the series with SW620 tumor organoids (setting [1]) is 3 µM; in the series on SW620 tumor organoids (setting [2]), 2.7 µM.

Take `Cc1cc(Nc2ccc(NC(=O)Cc3cn(S(=O)(=O)c4ccc(C(F)(F)F)cc4)c4ccccc34)cc2)nc(N2CCCC2)n1` [Compound 6.29, N-(4-((6-methyl-2-(pyrrolidin-1-yl)pyrimidin-4-yl)amino)phenyl)-2-(1-((4-(trifluoromethyl)phenyl)sulfonyl)-1H-indol-3-yl)acetamide]: the IC50 in the series on SW620 tumor organoids (setting [1]) came out at 5.4 µM; in the series with SW620 tumor organoids (setting [2]) it was 5.1 µM.

For `COc1ccc2[nH]cc(CC(=O)Nc3ccc(Nc4cc(C)nc(N5CCCC5)n4)cc3)c2c1` [Compound 6.22, 2-(5-methoxy-1H-indol-3-yl)-N-(4-((6-methyl-2-(pyrrolidin-1-yl)pyrimidin-4-yl)amino)phenyl) acetamide], the IC50 in the series with SW620 tumor organoids (read-out: 3 D Cytotoxicity 72 hr IC50 (μM) SW620, Table 6) worked out at 11.3 µM; in the series on SW620 tumor organoids (read-out: Tumor Organoid Cytotoxicity IC50 (μM) SW620, single agent, Table 4A, updated experimental, rounded to one decimal), 12.6 µM.
